This is an account of results in patent publication US20100004234A1, “SPECIFIC KINASE INHIBITORS” (Kosan Biosciences Incorporated, priority 2004, published 2010).

Usually kinact/KI stands for the second-order rate constant of inactivation. In general, kinact refers to the maximal first-order rate at which the target is inactivated.

The structures appear in SMILES notation.

One test concerns p70S6K(h). The experiment in a line: Kinase panel, residual activity. The class given is biochemical, human. The following applies: 0.2 μM. On the procedure: In this panel of 124 kinases, 18 of the 19 kinases identified as having an active site cysteine were inhibited to some extent by hypothemycin at a concentration of 0.2 μM and/or 2 μM.
The target in another test is MEK1 (Homo sapiens, UniProt Q02750). The test is described as follows: Time-dependent kinase inhibition kinetics (pre-incubation, [32P]ATP filter binding). In kind it is biochemical. The procedure: (§1) Typically, one measures the increase in inhibition of protein kinase activity in the presence of inhibitor over time. In one method, aliquots of a “pre-incubation” reaction mixture containing enzyme and inhibitor are assayed for activity (initial velocities) over time; increased inhibition or decreased initial velocities will be observed over time as the Michael adduct forms (Walsh, C, Enzyme Reaction Mechanisms, W.H. Freeman & Co., 1979, pp 86-94). In a second method, the time dependent loss of activity is measured as “progress curves” that measure and analyze product formed (e.g. ADP) versus time (Morrison & Walsh, Adv. Enzymol Relat Areas Mol. Biol. 1988, 61, 201-301). In either case, the time dependent inactivation can be dampened by the presence of a competing substrate, in this case ATP.
MEK1 and many other protein kinases that can be targets of the compounds useful in the methods of the invention can be obtained commercially (Invitrogen; Carlsbad, Calif.) or prepared using standard molecular biology techniques. After activation by phosphorylation, they are assayed for their ability to phosphorylate a target kinase or surrogate substrate. For example, MEK1 can be assayed in a mixture containing MEK1 (30 nM) and ERK1 (2 μM), [γ-^32P]ATP (10 uM) and MgCl2 in Mops buffer pH 7.6. Phosphorylation can be measured by isolating [γ-^32P]-phosphorylated ERK1 on phosphocellulose paper, and counting radioactive product. Alternatively, a coupled enzyme system may be used in which a product of the kinase reaction, such as ADP, is measured by analysis with a secondary system that converts that product (e.g. ADP) to an easily measurable entity (e.g. NADH); often, such coupled systems can be measured by convenient spectrophotometry assays.
To measure time-dependent inhibition using the “pre-incubation method”, MEK1 (or other kinase) is incubated with varying amounts of the lactone inhibitor; […]. Aliquots are removed at various times, added to a solution containing substrates [γ-^32P]ATP, ERK1 (or other substrate), and the other components of the reaction, and initial rates are determined as a measure of remaining enzyme activity.
(§2) For covalent inhibitors, plots of log (activity) versus time provide apparent first-order rate constants (kobsd) of enzyme activity loss. If these assays are performed at varying concentrations of inhibitor, a series of first-order plots is obtained and kobsd obtained at each inhibitor concentration. To measure time-dependent inhibition using the “progress-curve method” (see references cited above and Kuzmic et al., Methods Enzymol 2004; 383: 366-81), ERK (or other kinase) is treated with varying amounts of the lactone inhibitor, and the formation of ADP is measured continuously by a coupled assay. […] Such molecules may be competitive inhibitors but should not show time-dependent inactivation.
(§3) Those of skill in the art will recognize that within the set of compounds useful in the methods of the invention, significant variability in specificity can be achieved, allowing one to identify optimal compounds for different applications. Inhibition progress curve analysis was performed using continuous, colorimetric, or fluorimetric assays. All experiments were done at 1 mM ATP, with the exception of KDR (at 5 mM ATP).
(§4) MEK1 assays were performed using pre-incubation experiments with radioactive [^32P]ATP and filter binding of product. All other kinases were analyzed using progress curve analysis from a continuous spectrophotometric assay.

The target in another test is GSK3β (Homo sapiens, UniProt P49841). The experiment in a line: Time-dependent kinase inhibition kinetics (progress curve). The class given is biochemical. The procedure: as §1, §2, §3, §4
For another test, the target named is PDGFRα (Homo sapiens, UniProt P16234). Described as above. In kind it is biochemical. The procedure:
as §1, §2, §3, §4

The target in another test is TrkA (Homo sapiens, UniProt P04629). The description is as above. The class given is biochemical. On the procedure:
as §1, §2, §3, §4

Test [1] concerns phosphorylated ERK in COLO829 cells (B-Raf V599E). The test is described as follows: Phospho-ERK Western blot in COLO829 cells. The class given is cell-based, human. The procedure:
(§5) The downstream effects of inhibition of a particular kinase (e.g. MEK) can be established by measuring the phosphorylation state of several proteins that require that kinase for phosphorylation (e.g. ERK1). Cultured cells are treated with hypothemycin or other lactone analogs described herein, and Western blots of cell extracts are probed with antibodies specific for the unmodified and phosphorylated forms of the downstream targets. As an example, the effects of hypothemycin on MEK1/2 can be determined by measuring the level of ERK1/2 phosphorylation.
Referring to FIG. 8, B-Raf V599E mutant melanoma cell line COLO829 was incubated with 1 microM hypothemycin for 2, 5, 10, 15, 30, and 60 minutes. The cells were then lysed and the proteins extracted. Equal amounts of total protein from each sample were separated by SDS-PAGE followed by electroblotting to a PVDF membrane. The levels of phospho-ERK present in each extract were visualized by incubation of the membrane with anti-phosphoERK antibody (Cell Signaling Technologies) followed by incubation with an HRP linked secondary antibody. Phospho-ERK containing bands were detected by autoradiography using the ECL Western detection kit (Amersham).

The test system of test [2] is phosphorylated FLT3, MEK and ERK in MV-4-11 (FLT3(ITD)). The experiment in a line: Phosphorylation state of kinases in MV-4-11 cells. The conditions noted are these: MV-4-11, FLT3(ITD) mutation. In kind it is cell-based. On the procedure: as §5
For test [3], the system named is ERK1/2 activation in human T cells. The conditions noted are these: tested at 0.3 to 3 μM; cited from earlier work.

Chain of TrkA (P04629 33-796): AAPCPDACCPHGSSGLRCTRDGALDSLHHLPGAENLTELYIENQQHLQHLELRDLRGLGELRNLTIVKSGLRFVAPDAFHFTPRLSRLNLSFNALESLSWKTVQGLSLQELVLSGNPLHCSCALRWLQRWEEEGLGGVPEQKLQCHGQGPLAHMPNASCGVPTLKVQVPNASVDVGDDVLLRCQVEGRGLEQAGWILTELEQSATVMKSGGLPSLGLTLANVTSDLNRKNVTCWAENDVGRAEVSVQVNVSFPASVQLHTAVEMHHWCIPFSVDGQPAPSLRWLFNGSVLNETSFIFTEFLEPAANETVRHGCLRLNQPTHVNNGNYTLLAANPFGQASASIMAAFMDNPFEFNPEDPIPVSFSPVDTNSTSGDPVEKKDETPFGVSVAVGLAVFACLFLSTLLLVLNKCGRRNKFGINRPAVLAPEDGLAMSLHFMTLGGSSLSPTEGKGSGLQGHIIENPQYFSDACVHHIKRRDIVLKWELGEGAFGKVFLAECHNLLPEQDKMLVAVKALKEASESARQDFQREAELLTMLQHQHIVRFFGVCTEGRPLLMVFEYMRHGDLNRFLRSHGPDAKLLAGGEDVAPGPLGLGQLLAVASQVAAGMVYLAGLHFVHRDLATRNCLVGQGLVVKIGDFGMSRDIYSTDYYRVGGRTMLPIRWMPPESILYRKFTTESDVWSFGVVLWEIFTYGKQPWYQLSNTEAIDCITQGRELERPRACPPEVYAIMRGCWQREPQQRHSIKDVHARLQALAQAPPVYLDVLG
Chain of PDGFRα (P16234 24-1089): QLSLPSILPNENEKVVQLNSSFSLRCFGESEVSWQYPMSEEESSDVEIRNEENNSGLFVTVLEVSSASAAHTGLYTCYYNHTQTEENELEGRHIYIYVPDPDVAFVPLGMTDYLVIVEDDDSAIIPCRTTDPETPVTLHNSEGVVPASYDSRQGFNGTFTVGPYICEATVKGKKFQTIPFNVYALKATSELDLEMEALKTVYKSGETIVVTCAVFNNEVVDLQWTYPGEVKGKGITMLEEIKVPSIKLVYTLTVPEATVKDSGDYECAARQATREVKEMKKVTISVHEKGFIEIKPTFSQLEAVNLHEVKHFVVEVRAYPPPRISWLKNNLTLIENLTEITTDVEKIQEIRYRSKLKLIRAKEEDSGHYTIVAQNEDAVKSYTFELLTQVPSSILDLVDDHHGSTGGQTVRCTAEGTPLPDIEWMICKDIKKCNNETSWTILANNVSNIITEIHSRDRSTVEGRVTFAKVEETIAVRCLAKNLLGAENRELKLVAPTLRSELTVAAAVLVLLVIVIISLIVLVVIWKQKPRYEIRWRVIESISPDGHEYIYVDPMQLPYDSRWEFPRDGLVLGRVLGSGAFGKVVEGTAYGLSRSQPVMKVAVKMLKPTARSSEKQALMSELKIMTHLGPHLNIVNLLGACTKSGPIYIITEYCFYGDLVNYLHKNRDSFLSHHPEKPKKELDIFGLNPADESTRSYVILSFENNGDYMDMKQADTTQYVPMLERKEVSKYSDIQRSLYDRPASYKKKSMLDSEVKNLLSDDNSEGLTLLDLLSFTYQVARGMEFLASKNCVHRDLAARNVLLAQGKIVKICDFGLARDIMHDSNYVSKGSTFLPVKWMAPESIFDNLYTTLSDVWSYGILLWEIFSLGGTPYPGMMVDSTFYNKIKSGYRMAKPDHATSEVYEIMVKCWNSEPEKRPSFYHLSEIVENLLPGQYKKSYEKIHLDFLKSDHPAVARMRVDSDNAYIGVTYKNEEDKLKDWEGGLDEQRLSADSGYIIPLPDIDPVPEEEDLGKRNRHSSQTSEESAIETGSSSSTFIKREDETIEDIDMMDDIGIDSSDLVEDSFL
Chain of GSK3β (P49841 whole entry): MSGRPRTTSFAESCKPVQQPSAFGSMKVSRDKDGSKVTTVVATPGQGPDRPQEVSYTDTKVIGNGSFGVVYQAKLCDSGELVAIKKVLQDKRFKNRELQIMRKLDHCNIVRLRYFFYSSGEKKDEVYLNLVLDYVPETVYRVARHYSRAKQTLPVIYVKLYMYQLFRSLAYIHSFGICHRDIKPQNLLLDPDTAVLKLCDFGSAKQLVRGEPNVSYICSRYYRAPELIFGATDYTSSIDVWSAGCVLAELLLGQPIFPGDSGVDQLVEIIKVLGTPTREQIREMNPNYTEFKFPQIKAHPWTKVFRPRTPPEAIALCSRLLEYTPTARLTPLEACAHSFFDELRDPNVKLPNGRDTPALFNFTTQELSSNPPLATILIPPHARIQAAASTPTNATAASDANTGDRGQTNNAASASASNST
Chain of MEK1 (Q02750 whole entry): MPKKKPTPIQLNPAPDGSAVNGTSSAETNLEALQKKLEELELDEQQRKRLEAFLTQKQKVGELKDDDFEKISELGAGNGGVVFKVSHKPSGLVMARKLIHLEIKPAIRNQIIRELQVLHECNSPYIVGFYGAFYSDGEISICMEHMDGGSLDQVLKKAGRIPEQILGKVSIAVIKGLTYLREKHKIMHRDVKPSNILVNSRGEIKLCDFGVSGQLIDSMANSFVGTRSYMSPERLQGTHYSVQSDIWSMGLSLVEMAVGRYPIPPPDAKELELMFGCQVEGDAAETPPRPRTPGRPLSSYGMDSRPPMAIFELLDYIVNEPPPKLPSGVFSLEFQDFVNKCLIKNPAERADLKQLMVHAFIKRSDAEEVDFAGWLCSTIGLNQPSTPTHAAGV

As to `COc1cc(O)c2c(c1)[C@H]1O[C@@H]1C[C@H](O)[C@H](O)C(=O)/C=C\C[C@H](C)OC2=O` [Hypothemycin, hypothemycin], the Percent residual activity with p70S6K(h) came out at 94%. Moreover, the kinact/KI on MEK1 amounted to 130000 M⁻¹ s⁻¹; at GSK3β (GSK3β), 5.4 M⁻¹ s⁻¹; on PDGFRα, 1300 M⁻¹ s⁻¹. Further, the Ki is 19 nM on MEK1 (1 mM ATP); 370000 nM on GSK3β; 1500 nM on PDGFRα (1 mM ATP); 2200 nM on TrkA (TRKA, reversible inhibition competitive with ATP). Besides, the maximal inactivation rate constant (kinact) at MEK1 (1 mM ATP, read-out: kinact) is 0.003 s⁻¹; at GSK3β (GSK3β, 1 mM ATP), 0.002 s⁻¹; at PDGFRα (1 mM ATP), 0.002 s⁻¹; at TrkA (TrkA, 1 mM ATP), “None”. On TrkA (TrkA), the kinact/Ki entry was “None”. Besides, on TrkA (TrkA), the “time-dependent inactivation (covalent bond formation)” value is recorded as “did not show time-dependent inactivation”. Moreover, in test [1] (COLO829 (and other BRAF mutant cells)), the “time phosphorylated active ERK is absent after removal of the inhibitor” value is approximately 24 h. The “ERK pathway after a 10 min. exposure” value in test [1] (COLO829, concentrations several-fold lower than Kd / sub-micromolar) was “completely shut down”. The “time to depletion of the phosphorylated form of ERK” value in test [1] (COLO829 cells, 1 microM hypothemycin, FIG. 8) was not above 10 min. In addition, in test [2], the “phosphorylated forms of FLT3, MEK and ERK” value is on record as “loss of phosphorylated forms”. The “inhibition of the activation of ERK1/2” value in test [3] is “inhibit”.
